Target: T1, SIRT1 (Homo sapiens, UniProt Q96EB6)
T1 sequence (Q96EB6 1-747): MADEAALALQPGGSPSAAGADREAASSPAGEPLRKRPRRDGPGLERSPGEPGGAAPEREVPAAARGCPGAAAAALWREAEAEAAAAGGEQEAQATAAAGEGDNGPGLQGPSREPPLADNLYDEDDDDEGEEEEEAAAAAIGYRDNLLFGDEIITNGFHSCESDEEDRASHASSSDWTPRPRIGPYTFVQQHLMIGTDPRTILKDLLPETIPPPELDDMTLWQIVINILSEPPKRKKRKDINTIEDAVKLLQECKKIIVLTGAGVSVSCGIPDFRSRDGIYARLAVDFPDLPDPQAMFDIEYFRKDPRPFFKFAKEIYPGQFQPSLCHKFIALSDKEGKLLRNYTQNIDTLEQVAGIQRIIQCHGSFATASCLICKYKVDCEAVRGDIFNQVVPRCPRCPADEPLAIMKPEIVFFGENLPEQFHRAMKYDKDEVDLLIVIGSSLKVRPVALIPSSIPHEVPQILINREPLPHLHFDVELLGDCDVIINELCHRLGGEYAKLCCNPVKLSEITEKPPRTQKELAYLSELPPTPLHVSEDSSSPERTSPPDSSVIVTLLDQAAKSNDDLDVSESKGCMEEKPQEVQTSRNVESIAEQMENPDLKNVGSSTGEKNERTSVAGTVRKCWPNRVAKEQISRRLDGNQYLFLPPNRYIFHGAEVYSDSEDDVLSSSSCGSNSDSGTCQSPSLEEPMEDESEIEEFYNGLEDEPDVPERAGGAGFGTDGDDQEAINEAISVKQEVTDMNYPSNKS
Test: Trp mass spectrometry assay of SIRT1 activation (Ac-R-H-K-K(Ac)-W-NH2 peptide)
Assay type: biochemical
Details: Trp peptide 0.5 μM, 120 μM βNAD+, 10 nM SIRT1, 25 min at 25° C.; for Emax: 25 min, relative to control (100%), read-out: TRP MAX RESP (percent maximum fold activation)
Outline: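 Mass spectrometry read-out (OAADPR formed, or deacetylated Trp peptide) after a 25 min NAD-dependent deacetylation by E. coli-expressed His-SIRT1, stopped with formic acid.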

| Emax | TRP Activity (EC1.5, concentration of test compound that results in 150% activation of SIRT1) | Structure (SMILES) |
| --- | --- | --- |
| > 150% | A (EC1.5<1 μM) | N#Cc1ccc(NC(=O)N2c3nc(C(=O)NCC(F)(F)F)ccc3N3CC[C@H]2C3)nc1 [Example 158, (4S)—N5-(5-cyanopyridin-2-yl)-N7-(2,2,2-trifluoroethyl)-3,4-dihydro-1,4-methanopyrido[2,3-b][1,4]diazepine-5,7(2H)-dicarboxamide] |
| > 150% | A (EC1.5<1 μM) | O=C(NC1CC1(F)F)c1ccc2c(n1)N(C(=O)Nc1cnccn1)[C@H]1CCN2C1 (single isomer, unassigned) [Example 272] |
| < 150% | C (EC1.5>25 μM) | C[C@@H](NC(=O)c1ccc2c(n1)N(C(=O)Cc1ccccn1)[C@H]1CCN2C1)C(F)(F)F [Example 276, (4S)-5-(2-(pyridin-2-yl)acetyl)-N—((R)-1,1,1-trifluoropropan-2-yl)-2,3,4,5-tetrahydro-1,4-methanopyrido[2,3-b][1,4]diazepine-7-carboxamide] |
| > 150% | A (EC1.5<1 μM) | O=C(NC1CCC1)c1ccc2c(n1)N(C(=O)Nc1ccccn1)[C@H]1CCN2C1 [Example 7, (4S)—N-7-cyclobutyl-N-5-(pyridin-2-yl)-3,4-dihydro-1,4-methanopyrido [2,3-b] [1, 4] diazepine-5, 7(2H)-dicarboxamide] |
| > 150% | A (EC1.5<1 μM) | C[C@@H](NC(=O)c1ccc2c(n1)N(C(=O)Nc1cc(OCCCO)ccn1)[C@H]1CCN2C1)C(F)(F)F [Example 266, (4S)—N5-(4-(3-hydroxypropoxy)pyridin-2-yl)-N7-((R)-1,1,1-trifluoropropan-2-yl)-3,4-dihydro-1,4-methanopyrido[2,3-b][1,4]diazepine-5,7(2H)-dicarboxamide] |
| > 150% | A (EC1.5<1 μM) | Cc1ccnc(NC(=O)N2c3nc(C(=O)NCC4CC4)ccc3N3CC[C@H]2C3)c1 [Example 110, (4S)—N7-(cyclopropylmethyl)-N5-(4-methylpyridin-2-yl)-3,4-dihydro-1,4-methanopyrido[2,3-b][1,4]diazepine-5,7(2H)-dicarboxamide] |
| > 150% | B (EC1.5 1-25 μM) | O=C(NCc1cccnc1)c1ccc2c(n1)N(C(=O)Nc1cc(OC[C@H](O)CO)ccn1)[C@H]1CCN2C1 [Example 226, (4S)—N5-(4-((R)-2,3-dihydroxypropoxy)pyridin-2-yl)-N7-(pyridin-3-ylmethyl)-3,4-dihydro-1,4-methanopyrido[2,3-b][1,4]diazepine-5,7(2H)-dicarboxamide] |
| > 150% | B (EC1.5 1-25 μM) | COCC(C)NC(=O)c1ccc2c(n1)N(C(=O)Nc1ccccn1)[C@H]1CCN2C1 (stereo partly drawn) [Example 11, (4S)—N-7-(1-methoxypropan-2-yl)-N-5-(pyridin-2-yl)-3,4-dihydro-1,4-methanopyrido [2,3-b] [1, 4] diazepine-5, 7(2H)-dicarboxamide] |
| > 150% | A (EC1.5<1 μM) | Cc1c[nH]c2nc(NC(=O)N3c4nc(C(=O)N[C@H](C)C(F)(F)F)ccc4N4CC[C@H]3C4)ncc12 [Example 175, (4S)—N5-(5-methyl-7H-pyrrolo[2,3-d]pyrimidin-2-yl)-N7-((R)-1,1,1-trifluoropropan-2-yl)-3,4-dihydro-1,4-methanopyrido[2,3-b][1,4]diazepine-5,7(2H)-dicarboxamide] |
| > 150% | A (EC1.5<1 μM) | O=C(NC(CO)C(F)(F)F)c1ccc2c(n1)N(C(=O)Nc1ccccn1)[C@H]1CCN2C1 (stereo partly drawn) [Example 8, (4S)—N-5-(pyridin-2-yl)-N-7-(1,1,1-trifluoro-3-hydroxypropan-2-yl)-3,4-dihydro-1,4-methanopyrido[2,3-b][1,4]diazepine-5,7(2H)-dicarboxamide] |
| > 150% | B (EC1.5 1-25 μM) | CONC(=O)c1ccc2c(n1)N(C(=O)Nc1ccccn1)[C@H]1CCN2C1 [Example 228, (4S)—N7-methoxy-N5-(pyridin-2-yl)-3,4-dihydro-1,4-methanopyrido[2,3-b][1,4]diazepine-5,7(2H)-dicarboxamide] |
| > 150% | A (EC1.5<1 μM) | C[C@@H](NC(=O)c1ccc2c(n1)N(C(=O)Nc1cc3c(cn1)OCCC3)[C@H]1CCN2C1)C(F)(F)F [Example 138, (4S)—N5-(3,4-dihydro-2H-pyrano[2,3-c]pyridin-6-yl)-N7-((R)-1,1,1-trifluoropropan-2-yl)-3,4-dihydro-1,4-methanopyrido[2,3-b][1,4]diazepine-5,7(2H)-dicarboxamide] |
| > 150% | B (EC1.5 1-25 μM) | O=C(NC1CC1)c1ccc2c(n1)N(C(=O)Nc1ccc(Cl)cn1)[C@H]1CCN2C1 [Example 67, (4S)—N5-(5-chloropyridin-2-yl)-N7-cyclopropyl-3,4-dihydro-1,4-methanopyrido[2,3-b][1,4]diazepine-5,7(2H)-dicarboxamide] |
| > 150% | A (EC1.5<1 μM) | O=C(N[C@H](CO)C(F)(F)F)c1ccc2c(n1)N(C(=O)Nc1cnccn1)[C@H]1CCN2C1 (single isomer, unassigned) [Example 119] |
| > 150% | A (EC1.5<1 μM) | O=C(NCc1ccc(F)cc1)c1ccc2c(n1)N(C(=O)Nc1cc(OC[C@H](O)CO)ccn1)[C@H]1CCN2C1 [Example 240, (4S)—N5-(4-((R)-2,3-dihydroxypropoxy)pyridin-2-yl)-N7-(4-fluorobenzyl)-3,4-dihydro-1,4-methanopyrido[2,3-b][1,4]diazepine-5,7(2H)-dicarboxamide] |
| > 150% | A (EC1.5<1 μM) | Cc1ncc(-c2ccnc(NC(=O)N3c4nc(C(=O)N[C@H](C)C(F)(F)F)ccc4N4CC[C@H]3C4)n2)o1 [Example 156, (4S)—N5-(4-(2-methyloxazol-5-yl)pyrimidin-2-yl)-N7-((R)-1,1,1-trifluoropropan-2-yl)-3,4-dihydro-1,4-methanopyrido[2,3-b][1,4]diazepine-5,7(2H)-dicarboxamide] |
| > 150% | A (EC1.5<1 μM) | O=C(NC1(C(F)(F)F)CC1)c1ccc2c(n1)N(C(=O)Nc1ccccn1)[C@H]1CCN2C1 [Example 241, (4S)—N5-(pyridin-2-yl)-N7-(1-(trifluoromethyl)cyclopropyl)-3,4-dihydro-1,4-methanopyrido[2,3-b][1,4]diazepine-5,7(2H)-dicarboxamide] |
| > 150% | A (EC1.5<1 μM) | O=C(NC1CC1(F)F)c1ccc2c(n1)N(C(=O)Nc1cccnn1)[C@H]1CCN2C1 (single isomer, unassigned) [Example 270] |
| < 150% | A (EC1.5<1 μM) | C[C@@H](NC(=O)c1ccc2c(n1)N(C(=O)Nc1cc(CCC(O)CO)ccn1)[C@H]1CCN2C1)C(F)(F)F (single isomer, unassigned) [Example 302] |
| > 150% | A (EC1.5<1 μM) | O=C(NCc1cccc(F)c1)c1ccc2c(n1)N(C(=O)Nc1ccccn1)[C@H]1CCN2C1 [Example 236, (4S)—N7-(3-fluorobenzyl)-N5-(pyridin-2-yl)-3,4-dihydro-1,4-methanopyrido[2,3-b][1,4]diazepine-5,7(2H)-dicarboxamide] |
| < 150% | A (EC1.5<1 μM) | C[C@@H](NC(=O)c1ccc2c(n1)N(C(=O)Nc1cc(-c3cc[nH]n3)ccn1)[C@H]1CCN2C1)C(F)(F)F [Example 323, (4S)—N5-(4-(1H-pyrazol-3-yl)pyridin-2-yl)-N7-((R)-1,1,1-trifluoropropan-2-yl)-3,4-dihydro-1,4-methanopyrido[2,3-b][1,4]diazepine-5,7(2H)-dicarboxamide] |
| > 150% | B (EC1.5 1-25 μM) | C[C@@H](CO)NC(=O)c1ccc2c(n1)N(C(=O)Nc1ccccn1)[C@H]1CCN2C1 [Example 53, (4S)—N7-((S)-1-hydroxypropan-2-yl)-N5-(pyridin-2-yl)-3,4-dihydro-1,4-methanopyrido[2,3-b][1,4]diazepine-5,7(2H)-dicarboxamide] |

— US10072011B2, “Substituted bridged urea analogs as sirtuin modulators” (GlaxoSmithKline Intellectual Property (No.2) Limited, priority 2014, dated 2018)
